{
  "source": "patent US6949679B1",
  "about": "“Polyamine transport inhibitors” (Universite Laval, priority 1998, dated 2005)",
  "key": {"polyamine transporter [1]": {"test_system": "polyamine transporter", "test": "Inhibition of [3H]spermidine uptake in CHO-K1 cells", "type": "cell-based, Chinese hamster", "conditions": "MESC thioether derivatives", "description": "To 1 ml of an extemporaneously prepared, DTT-free solution of MESC (20 mM in […]) were added 50 μl of 50 mM Tris-HCl (pH 7.0) and 105 μl of a 40 mM solution of either iodoacetamide, LY iodoacetamide or ASIB in a light-protected microcentrifuge tube, and the mixture was incubated for 2 hours at 37° C. […] Excess iodoacetamide was then inactivated by adding DTT to a final concentration of 40 mM and incubating the solution for 2 hours at 37° C. […] The effect of the respective DTT-inactivated iodoacetamide on spermidine transport was determined in parallel by incubating cells with the same reaction mixture from which MESC was omitted. […] J. Biol. […] Cells were then lysed with 200-μl aliquot of 1 N NaOH and incubated for 30 minutes at 60° C. After neutralization with 200 μl of 1 N HCl, radioactivity was determined from a 250-μl of the cell lysate by scintillation counting. Uptake activity was expressed per amount of total cellular protein as determined by the method of Bradford (Bradford, M. M. 1976. Anal. Biochem. 72: 248-254). […] K[…] Ki and Vmax values were then estimated by Lineweaver-Burke analysis. For competitive inhibitors, Ki values were also estimated by measuring uptake activity in the presence of logarithmically increasing concentrations of antagonist, and using the Cheng-Prusoff equation (Cheng, Y.-C. and Prusoff, W. H. 1973. Biochem. Pharmacol. 22: 3099-3108) by iterative curve fitting for a sigmoidal curve. For mixed competitive/noncompetitive inhibition, two methods were used to calculate kinetic constants. […] C. 1976. Enzymes, 3rd Ed., Academic Press, San Diego, Calif.). […] C. 1976. Enzymes, 3rd Ed., Academic Press, San Diego, Calif.). Intracellular Accumulation"}, "polyamine transporter [2]": {"test_system": "polyamine transporter", "test": "Inhibition of [3H]putrescine uptake in ZR-75-1 cells", "type": "cell-based, human", "conditions": "ZR-75-1 cells, FIG. 32; 20 μM and 3 μM substrate, respectively; read-out: Apparent Ki, putrescine uptake", "description": "(§1) The rate of putrescine and spermidine transport was determined in ZR-75-1 cells incubated in serum-free RPMI 1640 medium as described (Lessard, M., Zhao, C., Singh, S. M. and Poulin, R. 1995. J. Biol. Chem. 270: 1685-1694), using [^3H]putrescine (30 Ci/mol) and [^3H]spermidine (20 Ci/mol), respectively as substrates for a 20 minute-assay period. Spermine uptake was similarly determined, using 1 μM [^14C]spermine (32 Ci/mol) as substrate. Uptake activity was expressed per amount of DNA as fluorometrically determined using 3,4-diaminobenzoic acid (Simard, J., Dauvois, S., Haagensen, D. E., Lėvesque, C., Mėrand, Y. and Labrie, F. 1990. Endocrinology, 126: 3223-3231). For the determination of spermidine uptake activity in CHO-K1 cells, 80% confluent cell monolayers were rinsed twice with PBS and incubated for 20 minutes at 37° C. in 400 μl of buffer A (20 mM Tris-HCl, pH 7.4; 0.42 mM CaCl2; 0.41 mM MgSO4; 103 mM NaCl; 5.7 mM KCl; 1.1 mM D-glucose) containing 5 μM [^3H]spermidine (20 Ci/mol). Cell cultures were then washed twice with 1 ml PBS containing 5.7 mM sym-norspermidine. Cells were then lysed with 200-μl aliquot of 1 N NaOH and incubated for 30 minutes at 60° C. After neutralization with 200 μl of 1 N HCl, radioactivity was determined from a 250-μl of the cell lysate by scintillation counting. Uptake activity was expressed per amount of total cellular protein as determined by the method of Bradford (Bradford, M. M. 1976. Anal. Biochem. 72: 248-254). Non-specific binding of radioactive substrate was similarly determined in parallel for both cell lines after a 15 second-incubation with 400 μl of ice-cold uptake solution.\n(§2) Kinetic analysis of polyamine transport was performed by determining uptake activity in the presence of a 3 μM [^3H]putrescine or 1 μM [^3H]spermidine plus increasing concentrations of nonradioactive substrate. K[…] Ki and Vmax values were then estimated by Lineweaver-Burke analysis. For competitive inhibitors, Ki values were also estimated by measuring uptake activity in the presence of logarithmically increasing concentrations of antagonist, and using the Cheng-Prusoff equation (Cheng, Y.-C. and Prusoff, W. H. 1973. Biochem. Pharmacol. 22: 3099-3108) by iterative curve fitting for a sigmoidal curve. For mixed competitive/noncompetitive inhibition, two methods were used to calculate kinetic constants. First, the equation [drawing 2] where v, s, and i are the transport velocity, substrate concentration and inhibitor concentration respectively, was used to calculate the inhibition constants for inhibitor/carrier complex formation (Ki) and carrier/inhibitor/substrate complex formation (Ki′) (Dixon, M. and Webb, E. C. 1976. Enzymes, 3rd Ed., Academic Press, San Diego, Calif.). Alternatively, the value of Ki for a mixed competitor/non-competitor was estimated from the intersect of equations v^−1 vs i at two different substrate concentrations (Dixon, M. and Webb, E. C. 1976. Enzymes, 3rd Ed., Academic Press, San Diego, Calif.). Intracellular Accumulation\n(§3) In order to evaluate the effectiveness of dimeric triamines as polyamine transport inhibitors, we synthesized N,N′-bis(3-aminopropyl),N,N′-bis(4-aminobutyl)cystamine or BABAC (structure 1, FIG. 25; FIG. 31), and its thiol form N-(3-aminopropyl),N-(4-aminobutyl)cysteamine or AAC (FIG. 31) according to Scheme 4 described above (FIG. 30), using spermidine as a precursor polyamine. The ability of BABAC and AAC to inhibit the intracellular uptake of radio-labeled putrescine and spermidine in the ZR-75-1 human breast cancer cell line was then determined according to standard published procedures (Lessard, et al. and Poulin, et al.) Briefly, ZR-75-1 cells were grown for four days in twenty-four well plates in RPMI 1640 medium supplemented with 10% fetal bovine serum."}, "polyamine transporter [3]": {"test_system": "polyamine transporter", "test": "Inhibition of [3H]spermidine uptake in ZR-75-1 cells", "type": "cell-based, human", "conditions": "FIG. 32, 20 μM and 3 μM substrate, respectively, read-out: Apparent Ki, spermidine uptake", "description": "as §1\nas §2, with “Alternatively, the value of Ki for a mixed competitor/non-competitor was estimated from the intersect of equations v^−1 vs i at two different substrate concentrations (Dixon, M. and Webb, E. C. 1976. Enzymes, 3rd Ed., Academic Press, San Diego, Calif.). Intracellular Accumulation” left out\nas §3"}, "polyamine transporter [4]": {"test_system": "polyamine transporter", "test": "Inhibition of [14C]spermine uptake in ZR-75-1 cells", "type": "cell-based, human", "conditions": "FIG. 32, read-out: Apparent Ki, spermine uptake", "description": "as §1, with “Spermine uptake was similarly determined, using 1 μM [^14C]spermine (32 Ci/mol) as substrate.” left out\nas §2, §3"}, "ZR-75-1 cells [5]": {"test_system": "ZR-75-1 cells", "test": "Reversal of DFMO-induced growth inhibition by exogenous spermidine", "type": "cell-based, human", "conditions": "Homo sapiens, ZR-75-1, 264 h; 1 mM DFMO, 11-day incubation", "description": "(§4) For growth studies, ZR-75-1 cells were cultured in MEZR medium or in phenol red-free RPMI 1640 supplemented with 2 mM L-glutamine, 1 mM sodium pyruvate, 15 mM Hepes, antibiotics, 1 nM 17β-estradiol, 0.5 μg of bovine insulin per ml and 5% (v/v) charcoal-treated fetal bovine serum (SD medium), as indicated in the text. When polyamines or polyamine analogs were added to serum-containing media, 1 mM aminoguanidine was added to inhibit bovine serum amine oxidase (BSAO) activity (Morgan, D. M. L. 1989, in The Physiology of Polyamines (Bachrach, U., and Heimer, Y. M. eds) Vol. I, pp. 203-229, CRC Press, Boca Raton). The effect of the transport inhibitors on cell growth was measured by incubating ZR-75-1 cells for 11 days in medium supplemented with antagonist, polyamines and/or 1 mM DFMO as indicated, followed by colorimetric determination of DNA content with 3,4-diaminobenzoic acid (Simard, J., Dauvois, S., Haagensen, D. E., Lėvesque C., Mėrand, Y. and Labriė, F. 1990. Endocrinology 126: 3223-3231).\nThis possibility was assessed by comparing the ability of DESC to prevent the reversal of DFMO-induced growth inhibition by increasing concentrations of exogenous spermidine."}, "ZR-75-1 cells [6]": {"test_system": "ZR-75-1 cells", "test": "Effect on ZR-75-1 cell proliferation (11 days, DNA content)", "type": "cell-based, human", "conditions": "1 mM", "description": "as §4, with “3223-3231). Medium was changed every other day in these experiments because of the slow reaction of the compound with an unknown component present in the IMEM and RPMI 1640 medium formulation.” for “3223-3231).”\nThe biocompatibility of DESC, MESC, and DEASC was thus evaluated during a long-term (11-day) incubation with ZR-75-1 cells grown in RPMI 1640 containing 10% (v/v) FBS in the absence and presence of 1 mM aminoguanidine. […] Weak growth inhibition caused by the mixed MESC-cysteamine disulfide, however, apparently involved degradation by a copper amine oxidase."}, "in vitro": {"test": "in vitro", "conditions": "human", "from_the_text": "FIG. 34 represents the relative cytotoxicity of sym-norspermidine (NSpd), BABAC and TADAX in ZR-75-1 human breast cancer cells. Data are the mean±SD of triplicate determinations from a representative experiment."}, "ZR-75-1 cells [7]": {"test_system": "ZR-75-1 cells", "test": "Time course of intracellular [3H]spermidine accumulation in presence of transport antagonists", "type": "cell-based, human", "conditions": "200 μM CHX, after 4 hours", "description": "The time course of intracellular accumulation of spermidine in the presence of transport antagonists was determined by incubating ZR-75-1 cells in 24-well plates with DESC (50 or 200 μM) or MESC (200 μM) in dissolved in MEZR medium containing 5 μM [^3H]spermidine in the presence or absence of cycloheximide (CHX, 200 μM), and harvesting at the indicated times for the determination of intracellular radioactive contents, as described above for polyamine uptake assays."}},
  "data": [
    {"molecule": "NCCCNCCCC(NCCCN)C(=O)NCCSCC(N)=O", "note": "(centres unmarked) [MESC-acetamide]", "values": [
      {"measurement": "Ki toward spermidine uptake compared with MESC", "setting": "polyamine transporter [1]", "value": "virtually identical to that of MESC"}
    ]},
    {"molecule": "NCCCCN(CCS)CCCN", "note": "[AAC, N-(3-aminopropyl),N-(4-aminobutyl)cysteamine]", "values": [
      {"measurement": "Ki", "setting": "polyamine transporter [2]", "value": 540, "unit": "nM"},
      {"measurement": "Ki", "setting": "polyamine transporter [3]", "value": 4370, "unit": "nM"},
      {"measurement": "Ki", "setting": "polyamine transporter [4]", "value": 3900, "unit": "nM"}
    ]},
    {"molecule": "NCCCC(N)(C(=O)O)C(F)F", "note": "(racemic) [DFMO, D,L-α-difluoromethylornithine]", "values": [
      {"measurement": "inhibition at 1000 µM", "setting": "ZR-75-1 cells [5]", "value": "~50", "unit": "%"}
    ]},
    {"molecule": "N=C(N)NN", "note": "[aminoguanidine, reference compound]", "values": [
      {"measurement": "Effect of aminoguanidine alone on cell growth", "setting": "ZR-75-1 cells [6]", "value": "slight inhibitory effect"}
    ]},
    {"molecule": "NCCCCN(CCCN)CCSSCCN(CCCN)CCCCN", "note": "[BABAC, N,N′-bis(3-aminopropyl),N,N′-bis(4-aminobutyl)cystamine]", "values": [
      {"measurement": "Ki", "setting": "polyamine transporter [2]", "value": 150, "unit": "nM"},
      {"measurement": "Ki", "setting": "polyamine transporter [3]", "value": 680, "unit": "nM"},
      {"measurement": "Ki", "setting": "polyamine transporter [4]", "value": 2100, "unit": "nM"},
      {"measurement": "IC50", "setting": "in vitro; ZR-75-1 cells", "value": 17000, "unit": "nM"}
    ]},
    {"molecule": "NCCCNCCCN", "note": "[sym-norspermidine, N-(3-aminopropyl)-1,3-diaminopropane, reference compound]", "values": [
      {"measurement": "IC50", "setting": "in vitro", "value": 6400, "unit": "nM"}
    ]},
    {"molecule": "[N-]=[N+]=Nc1ccc(C(=O)NCCCCNC(=O)CSCCNC(=O)C(CCCNCCCN)NCCCN)c(O)c1", "note": "(centres unmarked) [MESC-ASIB]", "values": [
      {"measurement": "Ki toward spermidine uptake compared with MESC", "setting": "polyamine transporter [1]", "value": "virtually identical to that of MESC"}
    ]},
    {"molecule": "C[C@@H]1C[C@@H]([C@H](O)CC2CC(=O)NC(=O)C2)C(=O)[C@@H](C)C1", "note": "[CHX, cycloheximide, reference compound]", "values": [
      {"measurement": "Increase in spermidine accumulation", "setting": "ZR-75-1 cells [7]", "value": 4, "unit": "fold"}
    ]},
    {"molecule": "NCCCNCCCC(NCCCN)C(=O)NCCSCC(=O)NCCN1C(=O)c2cc(S(=O)(=O)O)cc3c(N)c(S(=O)(=O)O)cc(c23)C1=O", "note": "(centres unmarked) [MESC-LY]", "values": [
      {"measurement": "Ki toward spermidine uptake compared with MESC", "setting": "polyamine transporter [1]", "value": "virtually identical to that of MESC"}
    ]}
  ]
}
